*1 amine or outer side, *2 acyl side, *3 side chain or, on linkers, in order; H or OH if unused. Where a SMILES comes first, the peptide text is derived from it. Side-chain parts run from the residue outwards. [ ]: non-standard residue; d: D form. The star is where a group is joined. C16 diacid = O=C(O)CCCCCCCCCCCCCCC(=O)*; γGlu = O=C(O)[C@H](CCC(=O)[*:2])N[*:1]; αMeL = CC(C)C[C@](C)(N)C(=O)O; Aib = CC(C)(N)C(=O)O
What was measured:
[1] = In vitro subcutaneous tissue supernatant (SCts) stability and metabolite identification, rat; assay type: in vitro ADME; settings: in vitro soft spot identification, rat SCts
Procedure: In vitro metabolic stability in subcutaneous tissue supernatant (SCts) was studied in male Sprague Dawley rats. Test compounds were incubated […] for 2 hours at 37° C.
Software aided in vitro metabolite identification on SCts stability samples was performed using either Metabolite Pilot (Sciex) or Biopharma Finder (Thermo). In addition, metabolite identification using Metabolite Pilot was performed on plasma samples of Comp Y following SC administration to rat at 1 mg/kg.

human CRF2a receptor = biological target: T1, human CRF2a receptor (Homo sapiens, UniProt Q13324); assay: Activity at human CRF2a receptor, cAMP functional assay in TeloHEAC cells; assay type: cell-based; settings: TeloHEAC cells stably expressing human CRF2a receptor, relative to urocortin 2 (100 nM = 100%)
T1 construct: expressed in transfected cells; host or cells: TeloHEAC cells
T1 sequence (Q13324 1-411): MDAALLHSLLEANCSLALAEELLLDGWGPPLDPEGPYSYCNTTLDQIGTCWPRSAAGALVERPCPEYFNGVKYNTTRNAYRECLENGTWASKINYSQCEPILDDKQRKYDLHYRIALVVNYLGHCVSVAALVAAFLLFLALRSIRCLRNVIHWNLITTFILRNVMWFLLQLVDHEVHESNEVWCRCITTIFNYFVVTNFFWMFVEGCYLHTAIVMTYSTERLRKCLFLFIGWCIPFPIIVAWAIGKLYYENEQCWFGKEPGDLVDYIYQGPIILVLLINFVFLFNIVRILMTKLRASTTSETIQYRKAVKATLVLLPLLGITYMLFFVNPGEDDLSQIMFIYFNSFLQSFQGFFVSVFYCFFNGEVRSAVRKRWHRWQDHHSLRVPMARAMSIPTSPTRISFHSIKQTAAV
In short: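 TeloHEAC cells stably expressing human CRF2a (10000 cells/well, suspended in HBSS/20 mM HEPES with 2 mM IBMX) were exposed to compounds for 30 min at 37 °C. cAMP was read as the 665/620 nm fluorescence ratio after 1 h at room temperature. EC50 was derived relative to 100 nM urocortin 2, set as 100%.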

CFR1R receptor = biological target: T2, CFR1R receptor (Homo sapiens, UniProt P34998); assay: Activity at anti-target CFR1R receptor, cAMP assay in CRF1R-overexpression CHO-K1 cells; assay type: cell-based; settings: 100% = Sauvagine at 100 nM
T2 construct: host or cells: CHO-K1 (clone 2)
T2 sequence (P34998 24-415): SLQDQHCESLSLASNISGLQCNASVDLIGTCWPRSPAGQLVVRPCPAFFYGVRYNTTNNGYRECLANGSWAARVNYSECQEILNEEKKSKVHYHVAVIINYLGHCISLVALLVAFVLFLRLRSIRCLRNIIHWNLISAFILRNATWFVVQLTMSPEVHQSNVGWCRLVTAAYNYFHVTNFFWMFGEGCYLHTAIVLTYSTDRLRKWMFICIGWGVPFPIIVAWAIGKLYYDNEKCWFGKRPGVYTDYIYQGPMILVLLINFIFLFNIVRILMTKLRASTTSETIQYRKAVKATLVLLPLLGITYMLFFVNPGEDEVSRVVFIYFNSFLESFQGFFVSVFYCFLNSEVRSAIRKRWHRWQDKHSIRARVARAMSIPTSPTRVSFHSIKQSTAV
In short: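 Signal is normalised to 100 nM Sauvagine, taken as 100% activation, in clone 2 cells plated at a final 4000 cells/well from frozen stocks.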

[2] = Chemical stability in buffer (pH 7.4 / pH 4.5), % purity loss; assay type: physicochemical; settings: 100 mM phosphate buffer pH 7.4; 40° C. vs 5° C.; 14 or 28 days
In short: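 Compounds dissolved at 10 mg/mL target in 100 mM phosphate (pH 7.4) or 100 mM acetate (pH 4.5) buffer for 1 h at room temperature, then centrifuged. Diluted supernatant stored at 5 °C or 40 °C for 14 or 28 days; % purity loss by LC-UV.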

Sprague Dawley rats = assay: Effect on systolic blood pressure, telemetry in Sprague Dawley rats; assay type: in vivo, rat; settings: 0.1 mg/kg SC
In short: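 Sprague Dawley rats with abdominal-aorta telemetry catheters, recovered ≥10 days, received 0.1 mg/kg SC of compound or vehicle. Systolic pressure recorded 1 h pre-dose as baseline, then continuously up to 48 hours, expressed as % change from baseline; duration of action is last time point with a BP effect (n=2).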

SMILES	major metabolic soft spot, in vitro [1]	EC50 (human CRF2a receptor)	Emax (% I) (CFR1R receptor)	EC50 (CFR1R receptor; cAMP)	Buffer stability pH 7.4 % purity loss [2]	Systolic blood pressure (Mean) % change from baseline, 8 h (Sprague Dawley rats; 8 h, n=2)	Systolic blood pressure (Mean) % change from baseline, 12 h (Sprague Dawley rats; 12 h, n=2)	Systolic blood pressure (Mean) % change from baseline, 24 h (Sprague Dawley rats; 24 h, n=2)	Duration of action (Sprague Dawley rats; last time point with an effect on BP still observed)
CC[C@H](C)[C@H](N)C(=O)N[C@H](C(=O)N[C@@H](CC(C)C)C(=O)N[C@@H](CO)C(=O)N[C@@H](CC(C)C)C(=O)N[C@@H](CC(=O)O)C(=O)N[C@@H](C(=O)N1CCC[C@H]1C(=O)N[C@H](C(=O)N[C@@H](CCCCN)C(=O)N[C@@H](CC(C)C)C(=O)N[C@@H](CCCCNC(=O)CC[C@H](NC(=O)CCCCCCCCCCCCCCC(=O)O)C(=O)O)C(=O)N[C@@H](CCC(N)=O)C(=O)N[C@H](C(=O)N[C@@H](CC(C)C)C(=O)N[C@@H](CC(C)C)C(=O)N[C@@H](CCCCN)C(=O)N[C@@H](CCC(N)=O)C(=O)N[C@@H](CCC(=O)O)C(=O)N[C@@H](CCCNC(=N)N)C(=O)N[C@@H](CCC(N)=O)C(=O)N[C@@H](CCCCN)C(=O)N[C@@H](CCCCN)C(=O)N[C@@H](CCC(N)=O)C(=O)N[C@@H](CCCNC(=N)N)C(=O)N[C@@H](CCC(=O)O)C(=O)N[C@@H](CCC(N)=O)C(=O)N[C@@H](C)C(=O)N[C@@H](CCC(=O)O)C(=O)N[C@@H](CCCCN)C(=O)N[C@@H](CC(N)=O)C(=O)N[C@@H](CCCCN)C(=O)N[C@@H](CCC(N)=O)C(=O)N[C@H](C(=O)N[C@@H](CC(C)C)C(=O)N[C@@H](CCC(=O)O)C(=O)N[C@@H](CCC(N)=O)C(=O)N[C@H](C(N)=O)C(C)C)[C@@H](C)CC)[C@@H](C)CC)[C@@H](C)CC)C(C)C)C(C)C [SEQ ID No. 151, reference compound] (H-IVLSLD[dV]PIKLK([γGlu-C16 diacid])QILLKQERQKKQREQAEKNKQILEQV-NH2)	N-terminus								
CC[C@H](C)[C@H](NC(C)=O)C(=O)N[C@H](C(=O)N[C@@H](CC(C)C)C(=O)N[C@@H](CO)C(=O)N[C@@H](CC(C)C)C(=O)N[C@@H](CC(=O)O)C(=O)N[C@H](C(=O)N1CCC[C@H]1C(=O)N[C@H](C(=O)N[C@@H](CCCCN)C(=O)N[C@@](C)(CC(C)C)C(=O)N[C@@H](CCCCNC(=O)CC[C@H](NC(=O)CCCCCCCCCCCCCCC(=O)O)C(=O)O)C(=O)N[C@@H](CCCCN)C(=O)N[C@H](C(=O)N[C@@H](CC(C)C)C(=O)N[C@@H](CC(C)C)C(=O)N[C@@H](CCC(=O)O)C(=O)N[C@@H](CCC(N)=O)C(=O)N[C@@H](CCC(=O)O)C(=O)N[C@@H](CCCCN)C(=O)N[C@@H](CCC(N)=O)C(=O)N[C@@H](CCCCN)C(=O)N[C@@H](CCCCN)C(=O)N[C@@H](CCC(N)=O)C(=O)N[C@@H](CCCNC(=N)N)C(=O)N[C@@H](CCC(=O)O)C(=O)N[C@@H](CCC(N)=O)C(=O)N[C@@H](C)C(=O)N[C@@H](CCC(=O)O)C(=O)N[C@H](C(=O)N[C@@H](CC(N)=O)C(=O)NC(C)(C)C(=O)N[C@@H](CCC(N)=O)C(=O)N[C@H](C(=O)N[C@@H](CC(C)C)C(=O)N[C@@H](C)C(=O)N[C@@H](CCC(N)=O)C(=O)N[C@H](C(N)=O)C(C)C)[C@@H](C)CC)[C@@H](C)O)[C@@H](C)CC)[C@@H](C)CC)C(C)C)C(C)C [compound 43] (Ac-IVLSLDVPIK[αMeL]K([γGlu-C16 diacid])KILLEQEKQKKQREQAETN[Aib]QILAQV-NH2)		0.3 nM	1 % I	> 250 nM	0/nd ^ %	−18%	−1%	13%	12 h

From patent US20260001928A1 (CORTERIA PHARMACEUTICALS, priority 2022, published 2026)
